Assay results as given in patent publication US7803795B2, “Phthalazine derivatives as parp inhibitors” (Janssen Pharmaceutica N.V., priority 2004, dated 2010).
pIC50: −log10 of the molar value. Structures can show the parent of a compound that is named as a salt.

Tests used:
PARP-1 enzyme = molecular target: T1, PARP-1 enzyme (Homo sapiens, UniProt P09874); experiment: in vitro filtration assay for PARP-1 inhibitory activity; format: biochemical; conditions: [32P]-NAD, histones, nicked DNA; dose-response 10^-5 M to 10^-8 M; read-out: in vitro filter assay PARP-1 pIC50 (converted)
T1 construct: made in house
T1 sequence (P09874 whole entry): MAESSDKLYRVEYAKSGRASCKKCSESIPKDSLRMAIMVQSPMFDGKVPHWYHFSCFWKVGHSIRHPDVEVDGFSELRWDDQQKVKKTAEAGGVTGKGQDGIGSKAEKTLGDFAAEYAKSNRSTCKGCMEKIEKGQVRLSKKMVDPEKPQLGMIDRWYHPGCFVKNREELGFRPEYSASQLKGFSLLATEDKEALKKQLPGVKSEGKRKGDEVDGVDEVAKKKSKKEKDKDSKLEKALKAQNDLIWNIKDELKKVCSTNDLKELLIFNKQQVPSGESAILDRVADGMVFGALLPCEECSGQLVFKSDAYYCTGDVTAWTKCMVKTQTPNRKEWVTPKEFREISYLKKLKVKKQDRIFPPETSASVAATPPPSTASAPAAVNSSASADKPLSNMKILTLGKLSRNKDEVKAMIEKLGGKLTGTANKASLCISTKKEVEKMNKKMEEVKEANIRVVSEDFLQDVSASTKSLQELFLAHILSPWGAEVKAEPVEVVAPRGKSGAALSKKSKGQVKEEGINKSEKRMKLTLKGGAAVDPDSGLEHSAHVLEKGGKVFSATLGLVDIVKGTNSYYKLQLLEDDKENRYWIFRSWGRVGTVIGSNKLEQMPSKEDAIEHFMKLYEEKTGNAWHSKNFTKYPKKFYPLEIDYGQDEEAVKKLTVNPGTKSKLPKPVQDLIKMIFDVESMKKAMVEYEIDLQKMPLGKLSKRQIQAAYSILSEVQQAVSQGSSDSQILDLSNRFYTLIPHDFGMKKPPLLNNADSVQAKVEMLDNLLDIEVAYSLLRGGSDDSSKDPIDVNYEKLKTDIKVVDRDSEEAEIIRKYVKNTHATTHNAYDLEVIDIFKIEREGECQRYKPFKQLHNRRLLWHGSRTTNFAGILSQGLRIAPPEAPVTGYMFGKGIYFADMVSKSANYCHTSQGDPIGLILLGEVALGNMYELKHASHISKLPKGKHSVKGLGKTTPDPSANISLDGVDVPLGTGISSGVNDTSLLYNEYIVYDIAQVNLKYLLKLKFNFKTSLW
Description: In Vitro Filtration Assay for PARP-1 Inhibitory Activity
Compounds of the present invention were tested in an in vitro filtration assay assessing PARP-1 activity (triggered in the presence of nicked DNA) by means of its histone poly (ADP-ribosylation activity using [^32P]-NAD as ADP-ribosyl donor. The radioactive ribosylated histones were precipitated by trichloroacetic acid (TCA) in 96-well filterplates and the incorporated [^32P] measured using a scintillation counter
A mixture of histones (stock solution: 5 mg/ml in H2O), NAD^+ (stock solution: 100 mM in H2O), and [^32P]-NAD^+ in incubation buffer (50 mM Tris/HCl, pH 8; 0.2 mM DTT; 4 mM MgCl2) was made. A mixture of the PARP-1 enzyme (5-10 μg/ml) and nicked DNA was also made. The nicked DNA was prepared as described in the in vitro SPA for PARP-1 inhibitory activity. Seventy-five μl of the PARP-1 enzyme/DNA mixture together with 1 μl of compound in DMSO and 25 μl of histones-NAD^+/[^32P]-NAD^+ mixture was added per well of a 96-well filterplate (0.45 μm, supplier Millipore). The final concentrations in the incubation mixture were 2 μg/ml for the histones, 0.1 mM for the NAD^+, […] (0.5 μC) for the [^32P]-NAD^+ and 2 μg/ml for the nicked DNA. Plates were incubated for 15 min. at room temperature and the reaction was terminated by the addition of 10 μl ice cold 100% TCA followed by the addition of 10 μl ice-cold BSA solution (1% in H2O). The protein fraction was allowed to precipitate for 10 min. at 4° C. and plates were vacuum filtered. The plates were subsequently washed with, for each well, 1 ml of 10% ice cold TCA, 1 ml of 5% ice cold TCA and 1 ml of 5% TCA at room temperature. Finally 100 μl of scintillation solution (Microscint 40, Packard) was added to each well and the plates were transferred to a TopCountNXT™ (supplier: Packard) for scintillation counting and values were expressed as counts per minute (cpm). For each experiment, controls (containing PARP-1 enzyme and DMSO without compound), a blank incubation (containing DMSO but no PARP-1 enzyme or compound) and samples (containing PARP-1 enzyme and compound dissolved in DMSO) were run in parallel. All compounds tested were dissolved and eventually further diluted in DMSO. In first instance, compounds were tested at a concentration of 10^−5M. […] In each test, the blank value was subtracted from both the control and the sample values. The control sample represented maximal PARP-1 enzyme activity. For each sample, the amount of cpm was expressed as a percentage of the mean cpm value of the controls. When appropriate, IC50-values (concentration of the drug, needed to reduce the PARP-1 enzyme activity to 50% of the control) were computed using linear interpolation between the experimental points just above and below the 50% level. Herein the effects of test compounds are expressed as pIC50 (the negative log value of the IC50-value). As a reference compound, 4-amino-1,8-naphthalimide was included to validate the filtration assay.

TANK-2 enzyme = molecular target: T2, TANK-2 enzyme (Homo sapiens, UniProt Q9H2K2); experiment: in vitro Scintillation Proximity Assay (SPA) for TANK-2 inhibitory activity; format: biochemical
T2 construct: His tag (inferred from capture on a Ni-coated plate); made in house
T2 sequence (Q9H2K2 1-1166): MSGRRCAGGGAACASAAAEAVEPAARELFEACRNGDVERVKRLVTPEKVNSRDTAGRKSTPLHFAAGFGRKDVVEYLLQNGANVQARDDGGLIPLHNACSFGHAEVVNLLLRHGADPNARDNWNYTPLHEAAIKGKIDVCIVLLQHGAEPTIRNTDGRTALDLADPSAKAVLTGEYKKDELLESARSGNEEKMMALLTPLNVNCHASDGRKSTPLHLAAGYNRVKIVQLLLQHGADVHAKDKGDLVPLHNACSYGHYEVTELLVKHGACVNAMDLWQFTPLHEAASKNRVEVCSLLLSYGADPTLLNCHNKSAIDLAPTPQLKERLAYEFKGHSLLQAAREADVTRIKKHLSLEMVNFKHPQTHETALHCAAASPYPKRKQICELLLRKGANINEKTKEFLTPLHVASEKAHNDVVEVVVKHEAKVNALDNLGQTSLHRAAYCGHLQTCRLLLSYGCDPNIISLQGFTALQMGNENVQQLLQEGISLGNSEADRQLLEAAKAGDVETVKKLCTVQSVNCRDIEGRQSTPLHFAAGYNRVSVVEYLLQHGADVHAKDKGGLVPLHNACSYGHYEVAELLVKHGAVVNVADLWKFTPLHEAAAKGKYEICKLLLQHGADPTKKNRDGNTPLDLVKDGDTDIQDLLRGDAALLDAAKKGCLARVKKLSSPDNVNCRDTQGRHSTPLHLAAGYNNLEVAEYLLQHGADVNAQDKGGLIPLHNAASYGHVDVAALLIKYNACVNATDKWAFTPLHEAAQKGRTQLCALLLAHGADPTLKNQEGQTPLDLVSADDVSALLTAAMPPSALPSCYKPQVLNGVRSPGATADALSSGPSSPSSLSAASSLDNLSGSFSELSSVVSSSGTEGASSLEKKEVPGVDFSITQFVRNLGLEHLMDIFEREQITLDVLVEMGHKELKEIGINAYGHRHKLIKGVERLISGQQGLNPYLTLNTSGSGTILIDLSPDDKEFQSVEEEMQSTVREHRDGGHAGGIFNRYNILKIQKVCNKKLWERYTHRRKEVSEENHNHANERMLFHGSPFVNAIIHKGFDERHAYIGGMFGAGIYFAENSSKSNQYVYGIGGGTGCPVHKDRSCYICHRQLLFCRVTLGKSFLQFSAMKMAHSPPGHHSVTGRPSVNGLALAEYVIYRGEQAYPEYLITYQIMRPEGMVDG
Description: In Vitro Scintillation Proximity Assay (SPA) for Tank-2 Inhibitory Activity
Compounds of the present invention were tested in an in vitro assay based on SPA technology with Ni Flash plates (96 or 384 well).
In principle, the assay relies upon SPA technology for the detection of auto-poly(ADP-ribosylation of TANK-2 protein using [^3H]-nicotinamide adenine dinucleotide ([^3H]-NAD^+) as ADP-ribosyl donor.
A stock solution of [^3H]-NAD^+/NAD was made by adding 64.6 μl of [^3H]-NAD^+ (0.1 mCi/ml, supplier: Perkin Elmer) and 46.7 μl NAD-stock (10.7 mM, stored at −20° C., supplier Roche) to 1888.7 μl assay buffer (60 mM Tris/HCl, pH 7.4; 0.9 mM DTT; 6 mM MgCl2). The TANK-2 enzyme was produced as described in EP1238063.60 μl of assay buffer, together with 1 μl of compound in DMSO, 20 μl of [^3H]-NAD^+/NAD and 20 μl of TANK-2 enzyme (final concentration 6 μg/ml) was added per well into a 96-well Ni-coated flash plate (Perkin Elmer). After incubation of the mixture for 120 min. at room temperature, the reaction was terminated by adding 60 μl of stopsolution (42.6 mg NAD in 6 ml H2O). The plates were covered with a plate sealer and placed in a TopCountNXT™ (Packard) for scintillation counting. Values were expressed as counts per minute (cpm). For each experiment, controls (containing TANK-2 enzyme and DMSO without compound), a blank incubation (containing DMSO but no TANK-2 enzyme or compound) and samples (containing TANK-2 enzyme and compound dissolved in DMSO) were run in parallel. All compounds tested were dissolved and eventually further diluted in DMSO. […] In each test, the blank value was subtracted from both the control and the sample values. The control sample represented maximal TANK-2 enzyme activity. For each sample, the amount of cpm was expressed as a percentage of the mean cpm value of the controls. When appropriate, IC50-values (concentration of the drug, needed to reduce the TANK-2 enzyme activity to 50% of the control) were computed using linear interpolation between the experimental points just above and below the 50% level. Herein the effects of test compounds are expressed as pIC50 (the negative log value of the IC50-value). As reference compounds, 3-aminobenzamide and 4-amino-1,8-naphthalimide were included to validate the SPA assay. Herein the assay was described using 96-well plates. In the assay using 384-well plates the same final concentrations were used and volumes were adapted.

SMILES | melting point [°C] | IC50 (PARP-1 enzyme) [nM] | pIC50 (TANK-2 enzyme)
O=c1[nH]nc(N[C@@H]2C[C@H]3CC[C@@H](C2)N3)c2ccccc12 (as salt: HBr) [Compound 15] | > 299 | – | –
Nc1ccc2c(=O)[nH]nc(NC3CCNCC3)c2c1 (as salt: HCl) (hydrate or solvate) [Compound 14] | > 300 | – | –
O=c1[nH]nc(C2CCN(CCCOc3ccc(F)cc3)CC2)c2ccccc12 (as salt: HCl) [Compound 13] | 227.6 | – | –
O=c1[nH]nc(N[C@@H]2C[C@H]3CC[C@@H](C2)N3CCCC(c2ccc(F)cc2)c2ccc(F)cc2)c2ccccc12 (hydrate or solvate) [Compound 3] | 164.4 | – | –
O=c1[nH]nc(C2CCNCC2)c2ccccc12 (hydrate or solvate) [Compound 4] | 264.9 | – | –
O=c1[nH]nc(C2CCN(C[C@H](O)[C@@H]3CCc4ccccc4O3)CC2)c2ccccc12 (relative stereo) [Compound 28] | – | 45.4 | –
O=c1[nH]nc(N[C@H]2CCN[C@@H](Cc3ccccc3)C2)c2ccccc12 (single isomer, unassigned) [Compound 35] | – | 177 | < 5.00
Nc1ccc2c(=O)[nH]nc(NC3CCNCC3)c2c1 [Compound 14] | – | 766 | < 5.00
CCOC(=O)N1CC[C@H](Nc2nnc(Cl)c3ccccc23)C[C@@H]1Cc1ccccc1 [Compound 19] | 161 | – | < 5.00
CCOC(=O)N1CCC(Nc2nnc(Cl)c3ccc([N+](=O)[O-])cc23)CC1 [Compound 20] | 199 | – | < 5.00
NCCN1CCC(Nc2n[nH]c(=O)c3ccccc23)CC1 [Compound 33] | – | 154 | < 5.00
O=c1[nH]nc(NCC2CCNCC2)c2ccccc12 [Compound 36] | – | 83.8 | 5.50
O=c1[nH]nc(NCCC2CCNCC2)c2ccccc12 [Compound 37] | – | 61.8 | < 5.00
O=c1[nH]nc(NC2CC(Cc3ccccc3)NC(Cc3ccccc3)C2)c2ccccc12 (stereo not drawn) [Compound 38] | – | 148 | < 5.00
O=c1[nH]nc(NC2CCNCC2)c2cc(Cl)ccc12 [Compound 39] | – | 213 | < 5.00
O=c1[nH]nc(NC2CCNCC2)c2cccc([N+](=O)[O-])c12 [Compound 40] | – | 217 | < 5.00
O=c1[nH]nc(NC2CCNCC2)c2ccccc12 [Compound 41] | – | 37.7 | < 5.00
CCOC(=O)N1CCC(CCNc2n[nH]c(=O)c3ccccc23)CC1 [Compound 43] | – | 56.8 | < 5.00
CC(C)(C)OC(=O)N1CCC(CNc2n[nH]c(=O)c3ccccc23)CC1 [Compound 47] | – | 182 | 5.20
COc1ccc(CCN2CCC(c3n[nH]c(=O)c4ccccc34)CC2)cc1 [Compound 64] | – | 29.2 | –

Results, then the molecule that gave them:

melting point [°C] | IC50 (PARP-1 enzyme) [nM] | pIC50 (TANK-2 enzyme) | SMILES
171.8 | – | – | Clc1nnc(NC2CCN(Cc3ccccc3)C2)c2ccccc12 (stereo not drawn) (as salt: HCl) (hydrate or solvate) [Compound 12]
253 | – | – | N#CC1CCN(c2n[nH]c(=O)c3ccccc23)CC1 [Compound 18]
– | 17.3 | < 5.00 | O=c1[nH]nc(C2CCN(CC(O)COc3ccc(F)c(F)c3)CC2)c2ccccc12 (stereo not drawn) [Compound 26]
– | 119 | < 5.00 | NC1CCN(c2n[nH]c(=O)c3ccccc23)CC1 [Compound 31]
– | 109 | 5.03 | N#CCN1CCN(c2n[nH]c(=O)c3ccccc23)CC1 [Compound 32]
– | 179 | < 5.00 | O=c1[nH]nc(NCCNC2CCN(Cc3ccccc3)CC2)c2ccccc12 [Compound 42]
– | 109 | 5.26 | O=c1[nH]nc(N2CCC(NCc3ccccc3)CC2)c2ccccc12 [Compound 45]
– | 91.8 | – | CN(c1cc2ccccc2s1)C1CCN(c2n[nH]c(=O)c3ccccc23)CC1 [Compound 54]
– | 38.6 | – | O=c1[nH]nc(C2CCN(c3ccc(Cl)nn3)CC2)c2ccccc12 [Compound 62]
– | – | < 5.00 | FC(F)(F)c1cccc(N2CCN(c3nnc(Cl)c4ccccc34)CC2)c1 [Compound 79]
– | – | < 5.00 | Clc1cccc(N2CCN(c3nnc(Cl)c4ccccc34)CC2)c1 [Compound 80]
– | – | 5.55 | Cc1cccc(N2CCN(c3nnc(Cl)c4ccccc34)CC2)c1 [Compound 81]
– | – | < 5.00 | COc1ccccc1N1CCN(c2nnc(Cl)c3ccccc23)CC1 [Compound 84]
